Biological target: T1, Serine/threonine-protein kinase LATS2 (Homo sapiens, UniProt Q9NRM7)
T1 sequence (Q9NRM7 whole entry): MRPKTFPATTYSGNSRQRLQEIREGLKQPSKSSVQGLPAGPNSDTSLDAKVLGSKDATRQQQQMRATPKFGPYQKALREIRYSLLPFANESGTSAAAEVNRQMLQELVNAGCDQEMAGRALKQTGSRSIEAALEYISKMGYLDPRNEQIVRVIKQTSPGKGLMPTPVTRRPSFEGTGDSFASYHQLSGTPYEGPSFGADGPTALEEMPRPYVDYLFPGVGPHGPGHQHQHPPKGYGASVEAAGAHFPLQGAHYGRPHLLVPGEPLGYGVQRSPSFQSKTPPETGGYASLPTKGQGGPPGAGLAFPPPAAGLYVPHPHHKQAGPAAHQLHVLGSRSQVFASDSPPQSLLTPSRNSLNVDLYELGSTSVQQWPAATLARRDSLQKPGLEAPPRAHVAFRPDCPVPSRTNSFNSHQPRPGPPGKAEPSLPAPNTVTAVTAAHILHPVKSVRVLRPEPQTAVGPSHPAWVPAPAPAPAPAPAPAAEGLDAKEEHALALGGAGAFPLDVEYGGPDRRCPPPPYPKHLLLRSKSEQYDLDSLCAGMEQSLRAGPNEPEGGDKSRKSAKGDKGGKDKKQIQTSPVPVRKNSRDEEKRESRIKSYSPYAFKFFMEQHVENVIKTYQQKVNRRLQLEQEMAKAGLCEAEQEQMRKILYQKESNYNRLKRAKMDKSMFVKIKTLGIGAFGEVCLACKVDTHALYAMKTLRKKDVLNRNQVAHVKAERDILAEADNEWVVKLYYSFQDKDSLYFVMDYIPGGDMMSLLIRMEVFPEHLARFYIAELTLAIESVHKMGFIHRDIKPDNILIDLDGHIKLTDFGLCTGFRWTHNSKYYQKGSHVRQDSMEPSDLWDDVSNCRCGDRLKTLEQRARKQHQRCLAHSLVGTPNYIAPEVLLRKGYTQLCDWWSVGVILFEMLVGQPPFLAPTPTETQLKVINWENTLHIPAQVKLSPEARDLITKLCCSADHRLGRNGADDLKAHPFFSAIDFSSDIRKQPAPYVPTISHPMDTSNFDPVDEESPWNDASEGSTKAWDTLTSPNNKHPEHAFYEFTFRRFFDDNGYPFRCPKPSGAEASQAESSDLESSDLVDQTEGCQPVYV
Assay: Standard LATS2 HTRF Assay
Description: Human LATS2 catalytic domain which contains the amino acids G553-V1088 (accession NP_055387) was purified in-house. The LATS2 catalytic domain was co-purified with Mob1b (accession NP_775739). The LATS2 biochemical HTRF assay was performed using the HTRF KinEASE-STK S1 Kit (Cisbio, Cat #62ST1PEC), following the protocol from the manufacturer. Compounds were dispensed by the Echo Liquid Handler (Labcyte) into a white 384-well plate (PerkinElmer, Cat #6008289). 3 uL of 2×LATS2 enzyme solution was added to the compounds, following by a 10 minute incubation at room temperature. Then, 2×ATP and STK S1 peptide solution was added to initiate the one hour enzyme reaction at room temperature. The final condition of the reaction was 0.2 nM LATS2, 50 μM ATP, 0.5 μM STK S1 peptide in 50 mM HEPES pH7.2, 10 mM MgCl2, 0.1% BGG, 0.005% Brij-35, 1 mM DTT. The reaction was quenched by adding 6 uL of the detection mixture which contained Streptavidin XL665 and STK Antibody-Cryptate (Cisbio), incubate for 1 hour at room temperature. The HTRF (665 nm/620 nm) signal was read on the Envision plater reader (PerkinElmer). The IC50 values were determined by fitting the % inhibition with a nonlinear four-parameter logistical equation. The Ki values were calculated using the Cheng-Prusoff equation for a competitive inhibitor, IC50═Ki (1+S/Km)+M [E] with ATP Km for LATS2=105 μM.

Ki: 0.022 nM
SMILES: COc1cncc2nc(-c3ccncc3)nc(N3CCC4(CCN(C)C4)CC3)c12 [US20240174696, Compound 252]

From BindingDB's records for patent US20240174696 (Genentech, 2024)
